Results as given in the supplement of paper PMC10307832.

Tests used:
Test in all cases: relative viability (nuclei count vs DMSO), 5 days (fraction); higher = more cells survive
[1] = compound: COC1=CC(c2cc3ccccc3[nH]2)=N/C1=C\c1[nH]c(C)cc1C [Obatoclax] + O=C(c1cc(Cc2n[nH]c(=O)c3ccccc23)ccc1F)N1CCN(C(=O)C2CC2)CC1 [Olaparib] (partner 8 µM)
In short: (§1)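 After 5 days of treatment, lung cancer cells in 1536-well plates were fixed and stained in a single step (final 0.05% Triton X-100, 1% formaldehyde, 1 ug/ml Hoechst) and their nuclei counted on 4× images. Treatment had been applied by pin tool the day after seeding as one drug alone or as a fixed anchor-drug dose with five library-drug doses (not always all listed) in √10 steps. Relative viability is the nuclei count of treated wells divided by that of vehicle wells, and values are medians of duplicate plates.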

[2] = compound: CC1=CC(=NN1)NC2=CC(=NC(=N2)/C=C/C3=CC=CC=C3)N4CCN(CC4)C + CC(=O)c1c(C)c2cnc(Nc3ccc(N4CCNCC4)cn3)nc2n(C2CCCC2)c1=O [Palbociclib] (partner 0.5 µM)
In short: as §1

[3] = compound: CC1=CC(=NN1)NC2=CC(=NC(=N2)/C=C/C3=CC=CC=C3)N4CCN(CC4)C + CS(=O)(=O)CCNCc1ccc(-c2ccc3ncnc(Nc4ccc(OCc5cccc(F)c5)c(Cl)c4)c3c2)o1 [Lapatinib] (partner 2 µM)
In short: as §1

[4] = compound: COC1=CC(c2cc3ccccc3[nH]2)=N/C1=C\c1[nH]c(C)cc1C [Obatoclax] + N=C(N)NC(=N)NCCc1ccccc1 [Phenformin] (partner 250 µM)
In short: as §1

## NCI-H1993
[1]; first compound 0.01 µM
  relative viability: 0.95
[1]; first compound 0.03162 µM
  relative viability: 1.15
[1]; first compound 0.1 µM
  relative viability: 0.984
[1]; first compound 0.3162 µM
  relative viability: 1.01
[1]; first compound 1 µM
  relative viability: 1.11
[2]; first compound 0.08 µM
  relative viability: 0.639
[2]; first compound 0.253 µM
  relative viability: 0.397
[2]; first compound 0.8 µM
  relative viability: 0.711
[2]; first compound 2.53 µM
  relative viability: 0.49
[2]; first compound 8 µM
  relative viability: 0.267
[3]; first compound 0.08 µM
  relative viability: 0.76
[3]; first compound 0.8 µM
  relative viability: 0.772
[3]; first compound 2.53 µM
  relative viability: 0.605
[3]; first compound 8 µM
  relative viability: 0.561
[4]; first compound 0.01 µM
  relative viability: 0.481
[4]; first compound 0.03162 µM
  relative viability: 0.537
[4]; first compound 0.1 µM
  relative viability: 0.531
[4]; first compound 0.3162 µM
  relative viability: 0.478
[4]; first compound 1 µM
  relative viability: 0.48

## NCI-H2009
[1]; first compound 0.01 µM
  relative viability: 0.687
[1]; first compound 0.03162 µM
  relative viability: 0.712
[1]; first compound 0.1 µM
  relative viability: 0.705
[1]; first compound 0.3162 µM
  relative viability: 0.573
[1]; first compound 1 µM
  relative viability: 0.26
[2]; first compound 0.08 µM
  relative viability: 0.191
[2]; first compound 0.253 µM
  relative viability: 0.18
[2]; first compound 0.8 µM
  relative viability: 0.216
[2]; first compound 2.53 µM
  relative viability: 0.129
[2]; first compound 8 µM
  relative viability: 0.102
[3]; first compound 0.08 µM
  relative viability: 0.907
[3]; first compound 0.253 µM
  relative viability: 0.628
[3]; first compound 0.8 µM
  relative viability: 1.03
[3]; first compound 2.53 µM
  relative viability: 0.451
[3]; first compound 8 µM
  relative viability: 0.189
[4]; first compound 0.01 µM
  relative viability: 0.472
[4]; first compound 0.03162 µM
  relative viability: 0.507
[4]; first compound 0.1 µM
  relative viability: 0.385
[4]; first compound 0.3162 µM
  relative viability: 0.27
[4]; first compound 1 µM
  relative viability: 0.194

## NCI-H2023
[1]; first compound 0.01 µM
  relative viability: 0.485
[1]; first compound 0.03162 µM
  relative viability: 0.574
[1]; first compound 0.1 µM
  relative viability: 0.442
[1]; first compound 0.3162 µM
  relative viability: 0.246
[1]; first compound 1 µM
  relative viability: 0.15
[2]; first compound 0.08 µM
  relative viability: 0.406
[2]; first compound 0.253 µM
  relative viability: 0.451
[2]; first compound 0.8 µM
  relative viability: 0.301
[2]; first compound 2.53 µM
  relative viability: 0.111
[2]; first compound 8 µM
  relative viability: 0.0652
[3]; first compound 0.08 µM
  relative viability: 0.849
[3]; first compound 0.253 µM
  relative viability: 0.92
[3]; first compound 0.8 µM
  relative viability: 0.765
[3]; first compound 2.53 µM
  relative viability: 0.0727
[3]; first compound 8 µM
  relative viability: 0.0496
[4]; first compound 0.01 µM
  relative viability: 0.387
[4]; first compound 0.03162 µM
  relative viability: 0.438
[4]; first compound 0.1 µM
  relative viability: 0.425
[4]; first compound 0.3162 µM
  relative viability: 0.293
[4]; first compound 1 µM
  relative viability: 0.152

## NCI-H2085
[1]; first compound 0.01 µM
  relative viability: 0.726
[1]; first compound 0.03162 µM
  relative viability: 0.784
[1]; first compound 0.1 µM
  relative viability: 0.747
[1]; first compound 0.3162 µM
  relative viability: 0.816
[1]; first compound 1 µM
  relative viability: 0.708
[2]; first compound 0.08 µM
  relative viability: 0.473
[2]; first compound 0.253 µM
  relative viability: 0.463
[2]; first compound 0.8 µM
  relative viability: 0.459
[2]; first compound 2.53 µM
  relative viability: 0.345
[2]; first compound 8 µM
  relative viability: 0.266
[3]; first compound 0.08 µM
  relative viability: 0.633
[3]; first compound 0.253 µM
  relative viability: 0.804
[3]; first compound 0.8 µM
  relative viability: 0.841
[3]; first compound 2.53 µM
  relative viability: 0.452
[3]; first compound 8 µM
  relative viability: 0.309
[4]; first compound 0.01 µM
  relative viability: 0.707
[4]; first compound 0.03162 µM
  relative viability: 0.668
[4]; first compound 0.1 µM
  relative viability: 0.662
[4]; first compound 0.3162 µM
  relative viability: 0.581
[4]; first compound 1 µM
  relative viability: 0.317

## NCI-H2087
[1]; first compound 0.01 µM
  relative viability: 0.588
[1]; first compound 0.03162 µM
  relative viability: 0.596
[1]; first compound 0.1 µM
  relative viability: 0.436
[1]; first compound 0.3162 µM
  relative viability: 0.451
[1]; first compound 1 µM
  relative viability: 0.226
[2]; first compound 0.08 µM
  relative viability: 0.213
[2]; first compound 0.253 µM
  relative viability: 0.17
[2]; first compound 0.8 µM
  relative viability: 0.236
[2]; first compound 2.53 µM
  relative viability: 0.164
[2]; first compound 8 µM
  relative viability: 0.123
[3]; first compound 0.08 µM
  relative viability: 1.01
[3]; first compound 0.253 µM
  relative viability: 1.02
[3]; first compound 0.8 µM
  relative viability: 1.03
[3]; first compound 2.53 µM
  relative viability: 0.582
[3]; first compound 8 µM
  relative viability: 0.188
[4]; first compound 0.01 µM
  relative viability: 0.423
[4]; first compound 0.03162 µM
  relative viability: 0.372
[4]; first compound 0.1 µM
  relative viability: 0.513
[4]; first compound 0.3162 µM
  relative viability: 0.344
[4]; first compound 1 µM
  relative viability: 0.193

## NCI-H2126
[1]; first compound 0.01 µM
  relative viability: 0.872
[1]; first compound 0.03162 µM
  relative viability: 0.851
[1]; first compound 0.1 µM
  relative viability: 0.903
[1]; first compound 0.3162 µM
  relative viability: 0.865
[1]; first compound 1 µM
  relative viability: 0.918
[2]; first compound 0.08 µM
  relative viability: 0.336
[2]; first compound 0.253 µM
  relative viability: 0.341
[2]; first compound 0.8 µM
  relative viability: 0.32
[2]; first compound 2.53 µM
  relative viability: 0.306
[2]; first compound 8 µM
  relative viability: 0.243
[3]; first compound 0.08 µM
  relative viability: 0.729
[3]; first compound 0.253 µM
  relative viability: 0.813
[3]; first compound 0.8 µM
  relative viability: 0.713
[3]; first compound 2.53 µM
  relative viability: 0.629
[3]; first compound 8 µM
  relative viability: 0.464
[4]; first compound 0.01 µM
  relative viability: 0.544
[4]; first compound 0.03162 µM
  relative viability: 0.517
[4]; first compound 0.1 µM
  relative viability: 0.504
[4]; first compound 0.3162 µM
  relative viability: 0.526
[4]; first compound 1 µM
  relative viability: 0.454

## NCI-H2170
[1]; first compound 0.01 µM
  relative viability: 0.574
[1]; first compound 0.03162 µM
  relative viability: 0.607
[1]; first compound 0.1 µM
  relative viability: 0.574
[1]; first compound 0.3162 µM
  relative viability: 0.585
[1]; first compound 1 µM
  relative viability: 0.655
[2]; first compound 0.08 µM
  relative viability: 0.401
[2]; first compound 0.253 µM
  relative viability: 0.396
[2]; first compound 0.8 µM
  relative viability: 0.387
[2]; first compound 2.53 µM
  relative viability: 0.31
[2]; first compound 8 µM
  relative viability: 0.144
[3]; first compound 0.08 µM
  relative viability: 0.277
[3]; first compound 0.253 µM
  relative viability: 0.255
[3]; first compound 0.8 µM
  relative viability: 0.244
[3]; first compound 2.53 µM
  relative viability: 0.199
[3]; first compound 8 µM
  relative viability: 0.166
[4]; first compound 0.01 µM
  relative viability: 0.362
[4]; first compound 0.03162 µM
  relative viability: 0.414
[4]; first compound 0.1 µM
  relative viability: 0.396
[4]; first compound 0.3162 µM
  relative viability: 0.419
[4]; first compound 1 µM
  relative viability: 0.437

## NCI-H2228
[1]; first compound 0.01 µM
  relative viability: 0.583
[1]; first compound 0.03162 µM
  relative viability: 0.521
[1]; first compound 0.1 µM
  relative viability: 0.62
[1]; first compound 0.3162 µM
  relative viability: 0.489
[1]; first compound 1 µM
  relative viability: 0.405
[2]; first compound 0.08 µM
  relative viability: 0.64
[2]; first compound 0.253 µM
  relative viability: 0.727
[2]; first compound 0.8 µM
  relative viability: 0.518
[2]; first compound 2.53 µM
  relative viability: 0.0712
[2]; first compound 8 µM
  relative viability: 0.0545
[3]; first compound 0.08 µM
  relative viability: 1.16
[3]; first compound 0.253 µM
  relative viability: 0.85
[3]; first compound 0.8 µM
  relative viability: 0.685
[3]; first compound 2.53 µM
  relative viability: 0.103
[3]; first compound 8 µM
  relative viability: 0.0435
[4]; first compound 0.01 µM
  relative viability: 0.339
[4]; first compound 0.03162 µM
  relative viability: 0.387
[4]; first compound 0.1 µM
  relative viability: 0.3
[4]; first compound 0.3162 µM
  relative viability: 0.285
[4]; first compound 1 µM
  relative viability: 0.159
